The test system of data set [1] is MCF-7 cells. The data set is described as follows: MCF-7 cell proliferation (CellTiter-Glo). The settings on record: for inhibition of MCF-7 cell proliferation at 50 μM: 72 h. The format is cell-based, human. The procedure:
(2A) The potency of purified compounds in inhibiting RSK catalytic activity in vitro was measured. Kinase assays were performed using immobilized substrate. The reactions were initiated by the addition of 10 μM ATP (final concentration). Reactions were terminated after 30 min. All assays measured the initial reaction velocity. The extent of phosphorylation was determined using phosphospecific antibodies in combination with HRP-conjugated secondary antibodies. HRP activity was measured as described in the Experimental. Maximum and minimum activity is the relative luminescence detected in the presence of vehicle and 200 mM EDTA, respectively. Points, mean (n=2 in triplicate); bars=SD. (2B) The potency of purified compounds as inhibitors of MCF-7 cell proliferation was determined. […] Values given are the fold proliferation. Points, mean (n=3 in quadruplicate); bars=SD.
(§1) The cell number was measured after 48 h of treatment. Values given are the fold proliferation as a percentage of that observed with vehicle-treated cells. Points, mean (n=2 in quadruplicate); bars=SD.
(§2) For proliferation studies cells were seeded at 5000 cells per well in 96 well tissue culture plates in the appropriate medium as described by American Type Culture Collection. After 24 hours, the medium was replaced with medium containing compound or vehicle as indicated. Cell viability was measured at indicated time points using CellTiter-Glo™ assay reagent (Promega, Madison, Wis.) according to manufacturer's protocol. Maximum responses and the concentrations of half the effective response (EC50) were determined by performing a best-fit analysis of the data (GraphPad Prism). For specificity studies, cells were seeded at 3×10^5 cells/well in 6 well plates. After 24 hours, the cells were serum-starved for 24 hours then incubated with compound or vehicle for 4 hours prior to a 20 minute treatment with PDB. Cells were lysed with boiling SDS-sample buffer without dithiothreitol (DTT). The lysates were normalized for total protein, and DTT was added to an aliquot, which was electrophoresed and immunoblotted. Antibodies used on cell lysates included anti-pan-MAPK (anti-ERK1/2) (610124) from BD Transduction Laboratories; anti-phospho-MAPK (V8031) from Promega; anti-eEF2 (2332), anti-phospho-eEF2 (2331), anti-phospho-Akt Substrate (9611), anti-phospho-PKA Substrate (9621), and anti-phospho-PKC Substrate (2261) from Cell Signaling Technology. Anti-Ran was a generous gift from Ian Macara (University of Virginia).

Data set [2] deals with recombinant, constitutively active RSK2 (Homo sapiens, UniProt P51812). The experiment in a line: in vitro RSK kinase assay. The format is biochemical. The settings on record: 10 μM ATP, 30 min, read-out: IC50 for inhibition of RSK catalytic activity in vitro.
Chain of recombinant, constitutively active RSK2 (P51812 1-397 limits assumed): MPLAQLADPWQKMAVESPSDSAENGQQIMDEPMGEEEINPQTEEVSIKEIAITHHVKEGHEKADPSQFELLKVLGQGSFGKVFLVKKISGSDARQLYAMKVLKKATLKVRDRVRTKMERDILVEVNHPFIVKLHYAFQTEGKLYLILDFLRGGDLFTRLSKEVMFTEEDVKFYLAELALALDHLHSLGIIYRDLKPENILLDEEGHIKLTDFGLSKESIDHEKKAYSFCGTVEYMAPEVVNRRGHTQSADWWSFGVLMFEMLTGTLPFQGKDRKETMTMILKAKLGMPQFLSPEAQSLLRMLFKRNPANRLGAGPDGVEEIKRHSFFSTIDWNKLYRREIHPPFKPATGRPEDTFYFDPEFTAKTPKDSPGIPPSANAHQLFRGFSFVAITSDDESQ
A short description of data set [3]: calculated LogP (Molinspiration Property Calculation Service). The settings on record: relative to SL0101, from calculated LogP. The procedure:
Reagents and solvents were reagent grade and used without further purification. Methylene chloride was distilled from calcium hydride. Anhydrous grade THF was purchased from VWR. All reactions involving air or moisture sensitive reagents or intermediates were performed under a nitrogen or argon atmosphere. Flash chromatography was performed using Silicycle 40-60 mesh silica gel. Analytical TLC was performed using 0.25 mm EM silica gel 60 […] plates that were visualized by irradiation (254 nm) or by staining with Hanessian's stain (cerium molybdate). Optical rotations were obtained using a Jasco digital polarimeter. ^1H and ^13C NMR spectra were obtained using 300 MHz and 500 MHz Varian instruments. Chemical shifts are reported in parts per million (ppm δ) referenced to the residual ^1H resonance of the solvent (CDCl3, 7.26 ppm; DMSO-d6, 2.49 ppm). ^13C spectra were referenced to the residual ^13C resonance of the solvent (CDCl3, 77.3 ppm; DMSO-d6, 39.5 ppm). Splitting patterns are designated as follows: s, singlet; br, broad; d, doublet; dd, doublet of doublets; t, triplet; q, quartet; m, multiplet. High resolution mass spectra were obtained at the Michigan State University-NIH Mass Spectrometry Facility. LogP values were calculated using Molinspiration Property Calculation Service (see their website).

A further data set deals with PKA, PKC and AKT. The data set is described as follows: phosphorylation patterns in MCF-7 cells with phospho-PKA, -PKC, -AKT substrate antibodies (specificity). It counts as cell-based, human. The following applies: pre-incubation before PDB. The procedure: MCF-7 cell lysates normalized for protein concentration were electrophoresed, transferred and immunoblotted with anti-phospho-PKA substrate, anti-phospho-PKC substrate or anti-phospho-AKT substrate.
as §2
The lysates were immunoblotted with multiple phospho-specific substrate antibodies.

The subject of data set [4] is MCF-10A cells. The experiment in a line: MCF-10A cell proliferation (CellTiter-Glo). It counts as cell-based, human. The settings on record: 48 h treatment. The procedure:
as §1
as §2, with “Antibodies used on cell lysates included anti-pan-MAPK (anti-ERK1/2) (610124) from BD Transduction Laboratories; anti-phospho-MAPK (V8031) from Promega; anti-eEF2 (2332), anti-phospho-eEF2 (2331), anti-phospho-Akt Substrate (9611), anti-phospho-PKA Substrate (9621), and anti-phospho-PKC Substrate (2261) from Cell Signaling Technology. Anti-Ran was a generous gift from Ian Macara (University of Virginia).” left out
(In ATP-based viability assays light output follows the ATP content of the culture.)

Data set [5] can be described thus: maximum solubility in tissue culture media. The format is physicochemical. The settings on record: aqueous buffer.
Another data set concerns MAPK. The experiment in a line: PDB-stimulated MAPK activation in MCF-7 cells (anti-active MAPK immunoblot). It counts as cell-based, human. The settings on record: serum-deprived MCF-7; 4 h pre-incubation; 500 nM PDB 20 min. The procedure: (3A) The potency of the synthesized compounds in inhibiting RSK catalytic activity in vitro was measured as described in FIG. 2A and is graphically illustrated. (3B) Represents an images of immunoblots where serum-deprived MCF-7 cells were pre-incubated with vehicle, or the indicated concentration of inhibitor for 4 h. Cells were treated with 500 nM PDB or vehicle for 20 min prior to lysis. Protein concentration of lysates was measured and lysates were electrophoresed, transferred and immunoblotted.
For proliferation studies cells were seeded at 5000 cells per well in 96 well tissue culture plates in the appropriate medium as described by American Type Culture Collection. After 24 hours, the medium was replaced with medium containing compound or vehicle as indicated. Cell viability was measured at indicated time points using CellTiter-Glo™ assay reagent (Promega, Madison, Wis.) according to manufacturer's protocol. Maximum responses and the concentrations of half the effective response (EC50) were determined by performing a best-fit analysis of the data (GraphPad Prism). For specificity studies, cells were seeded at 3×10^5 cells/well in 6 well plates. After 24 hours, the cells were serum-starved for 24 hours then incubated with compound or vehicle for 4 hours prior to a 20 minute treatment with PDB. Cells were lysed with boiling SDS-sample buffer without dithiothreitol (DTT). […]

Data set [6] deals with MCF-7 cells. The settings on record: cited from earlier work.
A further data set has as its system RSK. The data set is described as follows: eEF2 phosphorylation in PDB-stimulated MCF-7 cells (RSK activity in intact cells). It counts as cell-based, human. The following applies: serum-deprived MCF-7; 4 h pre-incubation; 500 nM PDB 20 min.
The test system of data set [7] is MCF-10A cells. The settings on record: background; cited from earlier work.
Where [8] appears, read: compounds purified from F. refracta.

The values that follow come from patent US8426568B2 (University of Virginia Patent Foundation, priority 2006, dated 2013).

Broadly, the IC50 is the concentration that inhibits the measured activity by half. One may read the solubility as the dissolved amount per volume that the medium holds. Read a high solubility as a readily soluble substance.

Converted amounts (≈) assume the structure as drawn. Where two headings read alike, the source gives them in different places.

Take `CC(=O)OC1C(C)OC(Oc2c(-c3ccc(O)cc3)oc3cc(O)cc(O)c3c2=O)C(OC(C)=O)C1O` [2″,4″-di-O-acetyl-SL0101, kaempferol 3-O-(2″,4″-di-O-acetyl-α-L-rhamnopyranoside)]: the “inhibition of MCF-7 cell proliferation at 50 μM” value (from here on “inhibition … at 50 μM”) in the data set on MCF-7 cells [1] was “similarly effective at inhibiting MCF-7 cell growth”. For the same molecule, in data set [2] (setting [8]), the IC50 is roughly 0.26 µM.

In the case of `CC(=O)OC1C(C)OC(Oc2c(-c3ccc(O)cc3)oc3cc(O)cc(O)c3c2=O)C(O)C1O` [4″-mono-O-acetyl-SL0101, kaempferol 3-O-(4″-mono-O-acetyl-α-L-rhamnopyranoside)], the “inhibition … at 50 μM” value in the data set with MCF-7 cells [1] was “did not inhibit MCF-7 cell proliferation”. In data set [2] (setting [8]), the concentration for half-maximal inhibition (IC50) was roughly 0.14 µM.

For `CCCC(=O)O[C@@H]1[C@@H](OC(=O)CCC)[C@@H](O)[C@H](Oc2c(-c3ccc(O)cc3)oc3cc(O)cc(O)c3c2=O)O[C@H]1C` [Bu-SL0101, kaempferol 3-O-(3″,4″-di-O-butyryl-α-L-rhamnopyranoside)], in the data set with MCF-7 cells [1] (Homo sapiens, MCF7, 48 h treatment, read-out: EC50 for inhibition of MCF-7 proliferation), the EC50 was 40 µM. The increase in hydrophobicity in [3] was greater than 50 fold. In the data set with PKA, PKC and AKT, the “effect on phosphorylation patterns (phospho-PKA, -PKC, -AKT substrate antibodies)” value (from here on “effect on phosphorylation patterns”) is recorded as “decreased the PDB-induced phosphorylation of a ˜25 kDa protein” and the “specificity for RSK in intact cells” value is on record as “not specific for inhibition of RSK activity”. The IC50 in data set [2] (synthesized compounds) was 0.212 µM. In the data set with MCF-10A cells [4], the “concentration at which significant inhibition of MCF-10A proliferation began” value worked out at 100 µM. This molecule also registered a solubility in data set [5] of roughly 100 µM (≈ 57.3 µg/mL). In addition, the “effect on PDB-induced MAPK activation / upstream kinases (MEK, Raf, PKC)” value in the data set on MAPK was “do not inhibit upstream kinases necessary for PDB-induced MAPK activation”.

Turning to `CC(=O)OC1C(C)OC(Oc2c(-c3ccc(O)cc3)oc3cc(O)cc(O)c3c2=O)C(O)C1OC(C)=O` [SL0101, kaempferol 3-O-(3″,4″-di-O-acetyl-α-L-rhamnopyranoside), reference compound], the “inhibition … at 50 μM” value with MCF-7 cells [1] was “similarly effective at inhibiting MCF-7 cell growth”. Moreover, the “proliferation of the human breast cancer cell line MCF-7” value with MCF-7 cells [6] (background) is listed as “inhibits proliferation”. Besides, the EC50 in the data set with MCF-7 cells [6] (previously reported (ref 4), current results in agreement, read-out: EC50 for inhibition of MCF-7 cell proliferation) was roughly 50 µM. In the data set on RSK, the “effect on eEF2 phosphorylation after PDB” value is given as “eliminated PDB-mediated inactivation of eEF2K”. In the data set on PKA, PKC and AKT, the “effect on phosphorylation patterns” value was “similar” and the “specificity for RSK in intact cells” value is listed as “demonstrates specificity for RSK in intact cells”. Besides, in the data set on MCF-10A cells [7], the “growth of the normal human breast line MCF-10A” value is reported as “does not prevent the growth”. In addition, the “effect on PDB-induced MAPK activation / upstream kinases (MEK, Raf, PKC)” value in the data set with MAPK is on record as “do not inhibit upstream kinases necessary for PDB-induced MAPK activation”.

For `N#CC(=C(/N)Sc1ccccc1N)/C(C#N)=C(\N)Sc1ccccc1N` [U0126, reference compound], in the data set with RSK, the “effect on eEF2 phosphorylation after PDB” value was “levels of eEF2 phosphorylation also remained increased”. The “effect on phosphorylation patterns” value in the data set with PKA, PKC and AKT is listed as “PDB-induced phosphorylation is inhibited”.
